In one test the test system is CCL2. Put plainly: Mouse CCL2 assay in MLE12 cells. The format is cell-based. The note with it: Mus musculus, MLE12, 30 h. The method, boiled down:
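MLE12 mouse lung epithelial cells (7500/well, DMEM/F12 with 5% FBS) preincubated 1 h with compounds (6-point dose-response, duplicate), then stimulated with TNF-α (final 20 ng/ml) for 30 h at 37 °C. Secreted CCL2 measured by HTRF sandwich immunoassay (Ex330/Em620, 665 nm) against standard curve; IC50 from delta ratios.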

The next test concerns the target OGG1 (Homo sapiens (Human), UniProt O15527). The test is described as follows: In vitro OGG1 activity assay. The test is classed as biochemical. The note with it: 800 pM OGG1 enzyme, 2 nM human APEX1, 10 nM 8-oxoA:C substrate. The method, boiled down: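 Fluorescence-release assay on a duplex oligonucleotide carrying an OGG1 substrate base beside a fluorophore, quenched from the complementary strand. Excess APEX1 cleaves the abasic site left by base excision, melting the duplex and unquenching the fluorophore. Compounds in DMSO were dispensed before enzyme and substrate, and fluorescein signal was read.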

Another test has as its system MLE12 cells. The test is described as follows: Cell viability assay in MLE12 cells (resazurin). The test is classed as cell-based, mouse. The settings on record: Mus musculus, TNF-α 20 ng/ml, resazurin added after 24 hours culture. The method, boiled down:
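MLE12 cells (7500 cells/well) were seeded onto 11-point duplicate compound dose-responses, with TNF-α (final 20 ng/ml) added after 1 hour at 37° C. After 24 hours, resazurin was added for 6 hours and resorufin fluorescence read (ex544 nm/em595 nm). EC50 values were calculated by curve fitting.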
For orientation: Resazurin is reduced to fluorescent resorufin, in cell work by metabolically active cells.

Where two headings read alike, the source gives them in different places.

Chain of OGG1 (O15527 whole entry): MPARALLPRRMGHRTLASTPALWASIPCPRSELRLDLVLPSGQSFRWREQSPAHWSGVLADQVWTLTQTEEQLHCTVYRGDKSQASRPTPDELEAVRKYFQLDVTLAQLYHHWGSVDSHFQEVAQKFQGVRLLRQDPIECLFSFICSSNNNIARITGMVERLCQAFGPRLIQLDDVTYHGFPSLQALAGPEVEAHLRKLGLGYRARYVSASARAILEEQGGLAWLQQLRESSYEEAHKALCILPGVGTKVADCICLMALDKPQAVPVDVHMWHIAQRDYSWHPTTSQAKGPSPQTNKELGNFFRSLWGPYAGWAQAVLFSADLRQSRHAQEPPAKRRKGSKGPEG

As usually defined, the EC50 is the midpoint of the concentration-response curve. As a reminder, the IC50 is the point on the concentration scale where inhibition reaches its midpoint. Read a low IC50 as inhibition by little substance. In the case of `COCCOc1cccc2c1[nH]c(=O)n2[C@H]1CC[C@@H](C(=O)Nc2ccc(C)c(OC)c2)CC1` [Example 245, Cis-N-(3-methoxy-4-methylphenyl)-4-[4-(2-methoxyethoxy)-2-oxo-2,3-dihydro-1H-1,3-benzodiazol-1-yl]cyclohexane-1-carboxamide], the concentration for a half-maximal effect (EC50) in the test on CCL2 (MLE12 cells, TNF-α 20 ng/ml, supernatant after 30 hours, HTRF, read-out: CCL2 (EC50)) was greater than 33000 nM. The IC50 is 2.76 µM against OGG1 and 12.5 µM with MLE12 cells (MLE12, 24 h).
As to `Cc1cc(NC(=O)N2C3CCC2CC(n2c(=O)[nH]c4c(Br)cccc42)C3)ccc1I` (stereo not drawn) [Example 84, 3-(4-Bromo-2-oxo-2,3-dihydro-1H-1,3-benzodiazol-1-yl)-N-(4-iodo-3-methylphenyl)-(endo)-8-azabicyclo[3.2.1]octane-8-carboxamide], in the test with CCL2 (read-out: CCL2 (EC50, nM)), the EC50 is 23900 nM. Moreover, the IC50 turned out to be 0.03 µM against OGG1 and 8.14 µM with MLE12 cells.

For the origin of these results see patent publication US11970474B2, “Substituted benzodiazoles and use thereof in therapy” (THOMAS HELLEDAYS STIFTELSE FÖR MEDICINSK FORSKNING, priority 2018, dated 2024).
